Measurements reported in patent EP1043318A1 (priority 1997, dated 1999).

Tests used:
C. trachomatis D323 = experiment: Activity on Chlamydia trachomatis in infected cell culture; type: cell-based; conditions: for No. of unchanged cells: 100 viewing fields, cell control 9.000, infected cells 6.000
[1] = tested on: herpes simplex type 1 (VPG-1/Leningrad/248/88); experiment: Antiviral activity on herpes virus, cytopathic effect in Vero cell culture; type: cell-based, herpes simplex virus; conditions: unchanged Vero cells after 36 hours
M. tuberculosis 61 (S) = experiment: Activity on pathogenic mycobacteria, growth on Lewenstein-Jensen medium (sensitive strain); type: cell-based; conditions: strain sensitive to control preparations; concentration of the preparation 50.0 g/l (table title); incubated 30 days
[2] = tested on: primary culture of humans lymphocytes; experiment: Interferon-inducing activity in primary lymphocyte culture (immunoenzyme determination of INF); type: cell-based, human
Acute toxicity in mice = experiment: Acute toxicity in mice; design: species or system non-linebred white mice; conditions: mouse, in vivo, iv, by mouth or intravenously, 14 days observation
Protocol: Acute toxicity was determined on non-linebred white mice weighing 18-20 g. The claimed compounds were prepared in a range of concentrations: 1500, 700, 500, 100, 20 and 5 µg/kg. Five animals were used to study each specific concentration of a compound. The preparation was administered once a day by mouth of intravenously. The observation period was 14 days On days 1, 8 and 15 the animals in every group were weighed. For a control we used animals who received the emulsion without the test compounds. All animals, both those that died in the course of the experiment and those that survived to the end of the experiment, were opened to allow macroscopic examination of internal organs. In the course of the experiment no loss of weight was observed or any change in behavior or external appearance, nor was there any loss of life. Based on the results of the macroscopic examination of internal organs of the animals in the test and the control groups, no pathological findings were made, [text missing]

2-hydroxyethylammonium salt of 5,5'-(p-nitrobenzylidene)bisbarbituric acid [III]
percent protection of the cells against infection (C. trachomatis D323; 10 mg/l): 60% | No. of unchanged cells (C. trachomatis D323; 10 mg/l): 7800 | percent protection of the cells against infection (C. trachomatis D323; 100 mg/l): 65% | No. of unchanged cells (C. trachomatis D323; 100 mg/l): 7950 | number of cells in 100 fields ([1]; 10 mg/l): 2000 | number of cells in 100 fields ([1]; 50 mg/l): 3000 | number of cells in 100 fields ([1]; 100 mg/l): 5500

Nc1nc2c(ncn2COCCO)c(=O)[nH]1 [Acyclovir, reference compound]
number of cells in 100 fields ([1]; 10 mg/l): 8000

CC[C@@H](CO)NCCN[C@@H](CC)CO [Ethambutol]
M. tuberculosis 61S growth (M. tuberculosis 61 (S)): complete suppression of growth

O=C1NC(=S)NC(=O)C1C(c1ccc(Cl)cc1)C1C(=O)NC(=S)NC1=O [IX]
number of cells in 100 fields ([1]; 10 mg/l): 10000 | number of cells in 100 fields ([1]; 50 mg/l): 10000 | number of cells in 100 fields ([1]; 100 mg/l): 3000 | Concentration of INF in induction mixture after 24 hrs. of incubation ([2]; 1 mg/l of the preparation): 5,6 ± 0,8 IU/3·10^4 lymph/ml | Concentration of INF in induction mixture after 24 hrs. of incubation ([2]; 10 mg/l of the preparation): 21,0 ± 0,9 IU/3·10^4 lymph/ml | Concentration of INF in induction mixture after 24 hrs. of incubation ([2]; 100 mg/l of the preparation): 35,2 ± 1,6 IU/3·10^4 lymph/ml

NNC(=O)c1ccncc1 [Isoniazid]
M. tuberculosis 61S growth (M. tuberculosis 61 (S)): complete suppression of growth

[H]/N=C(/N)N[C@H]1[C@H](O)[C@@H](O)[C@H](O[C@@H]2O[C@@H](C)[C@](O)(C=O)[C@H]2O[C@@H]2O[C@@H](CO)[C@H](O)[C@@H](O)[C@@H]2NC)[C@@H](N/C(N)=N\[H])[C@@H]1O [Streptomycin]
M. tuberculosis 61S growth (M. tuberculosis 61 (S)): complete suppression of growth

O=C1NC(=S)NC(=O)C1C(c1ccc([N+](=O)[O-])cc1)C1C(=O)NC(=S)NC1=O [X, 5,5'-(p-nitrobenzylidene)bis (2-thiobarbituric) acid]
M. tuberculosis 61S growth (M. tuberculosis 61 (S)): complete suppression of growth | LD50 at 336 h (Acute toxicity in mice): 1000 mg/kg | number of cells in 100 fields ([1]; 10 mg/l): 10000 | number of cells in 100 fields ([1]; 50 mg/l): 10000 | number of cells in 100 fields ([1]; 100 mg/l): 3000 | Concentration of INF in induction mixture after 24 hrs. of incubation ([2]; 1 mg/l of the preparation): 4.0 ± 0.5 IU/3·10^4 lymph/ml | Concentration of INF in induction mixture after 24 hrs. of incubation ([2]; 10 mg/l of the preparation): 23 ± 1.0 IU/3·10^4 lymph/ml | Concentration of INF in induction mixture after 24 hrs. of incubation ([2]; 100 mg/l of the preparation): 47 ± 0.8 IU/3·10^4 lymph/ml

pyridine salt of 5,5'-(p-bromobenzylidene)bisbarbituric acid [VIII]
number of cells in 100 fields ([1]; 10 mg/l): 10000 | number of cells in 100 fields ([1]; 50 mg/l): 2500 | number of cells in 100 fields ([1]; 100 mg/l): 5000 | Concentration of INF in induction mixture after 24 hrs. of incubation ([2]; 1 mg/l of the preparation): 0,9 ± 0,2 IU/3·10^4 lymph/ml | Concentration of INF in induction mixture after 24 hrs. of incubation ([2]; 10 mg/l of the preparation): 1,2 ± 0,4 IU/3·10^4 lymph/ml | Concentration of INF in induction mixture after 24 hrs. of incubation ([2]; 100 mg/l of the preparation): 3,8 ± 0,4 IU/3·10^4 lymph/ml

pyridine salt of 5,5'-(p-chlorobenzylidene)bis(2-thiobarbituric) acid [IV]
number of cells in 100 fields ([1]; 10 mg/l): 10000 | number of cells in 100 fields ([1]; 50 mg/l): 2000 | number of cells in 100 fields ([1]; 100 mg/l): 4000 | Concentration of INF in induction mixture after 24 hrs. of incubation ([2]; 1 mg/l of the preparation): 1,3 ± 0,5 IU/3·10^4 lymph/ml | Concentration of INF in induction mixture after 24 hrs. of incubation ([2]; 10 mg/l of the preparation): 3,7 ± 1,0 IU/3·10^4 lymph/ml | Concentration of INF in induction mixture after 24 hrs. of incubation ([2]; 100 mg/l of the preparation): 23,0 ± 1,7 IU/3·10^4 lymph/ml
